Measured values from ChEMBL document CHEMBL5352447, “Development of [1,2]oxazoloisoindoles tubulin polymerization inhibitors: Further chemical modifications and potential therapeutic effects against lymphomas” (Eur J Med Chem, 2022).
Calls of active or inactive are those of the source. The calls are words filed in the database; no cut-off is given here.

Legend:
[1] = Antiproliferative activity against human MINO cells assessed as proliferating cells at 1 uM incubated for 72 hrs by MTT assay relative to control; assay type: functional
VL51 [2] = test: Antiproliferative activity against human VL51 cells assessed as inhibition of cell proliferation incubated for 72 hrs by MTT assay; assay type: functional, cell-based; settings: VL51, 72 h
SU-DHL10 [3] = test: Antiproliferative activity against human SU-DHL-10 cells assessed as inhibition of cell proliferation incubated for 72 hrs by MTT assay; assay type: functional, cell-based; settings: SU-DHL10, 72 h
SU-DHL10 [4] = test: Antiproliferative activity against human SU-DHL-10 cells assessed as proliferating cells at 1 uM incubated for 72 hrs by MTT assay relative to control; assay type: functional
[5] = Antiproliferative activity against human HBL1 cells assessed as inhibition of cell proliferation incubated for 72 hrs by MTT assay; assay type: functional, cell-based; settings: HBL1, 72 h
MCF7 = test: Cytotoxicity against human MCF7 cells assessed as cell growth inhibition; assay type: functional, cell-based
[6] = Antiproliferative activity against human MINO cells assessed as inhibition of cell proliferation incubated for 72 hrs by MTT assay; assay type: functional, cell-based
Tubulin = test: Inhibition of tubulin assembly (unknown origin); assay type: protein-complex assay, Homo sapiens
VL51 [7] = test: Antiproliferative activity against human VL51 cells assessed as proliferating cells at 1 uM incubated for 72 hrs by MTT assay relative to control; assay type: functional
[8] = Antiproliferative activity against human HBL1 cells assessed as proliferating cells at 1 uM incubated for 72 hrs by MTT assay relative to control; assay type: functional
Tubulin (Homo sapiens) = Tubulin (Homo sapiens) (UniProt P68371+Q9H4B7+P0DPH7+P68366+Q13509+Q71U36+P04350+Q3ZCM7+P07437+P68363+Q9BQE3+Q6PEY2+Q13885+Q9BVA1+Q9BUF5); test: Inhibition of [3H]Colchicine binding to tubulin (unknown origin) at 5 uM relative to control; assay type: protein-complex assay
MINO [9] = test: Induction of cell cycle arrest in human MINO cells assessed as accumulation at G2/M phase at 50 nM incubated for 24 to 72 hrs by […]; assay type: functional; settings: time 24-72 hrs
VL51 [10] = test: Induction of cell cycle arrest in human VL51 cells assessed as accumulation at subG0 phase at early time point at 50 to 500 nM incubated upto 72 hrs by […]; assay type: functional; settings: dose 50-500 nM
PBMC = test: Induction of apoptosis in human PBMC cells at 500 nM incubated for 24 to 48 hrs by annexin V staining based analysis relative to control; assay type: toxicity, cell-based; settings: 0.5 µM, time 24-48 hrs
VL51 [11] = test: Induction of cell cycle arrest in human VL51 cells assessed as accumulation at G2/M phase at 50 nM incubated for 24 to 72 hrs by […]; assay type: functional; settings: time 24-72 hrs
MINO [12] = test: Induction of cell cycle arrest in human MINO cells assessed as accumulation at subG0 phase at early time point at 50 to 500 nM incubated upto 72 hrs by […]; assay type: functional; settings: dose 50-500 nM
VL51 [13] = test: Induction of apoptosis in human VL51 cells at 50 to 500 nM incubated for 24 to 72 hrs by annexin V-FITC/PI staining based analysis; assay type: functional, cell-based; settings: dose 50-500 nM, time 24-72 hrs
MINO [14] = test: Induction of apoptosis in human MINO cells at 50 to 500 nM incubated for 24 to 72 hrs by annexin V-FITC/PI staining based analysis; assay type: functional, cell-based; settings: dose 50-500 nM, time 24-72 hrs
MINO [15] = test: Upregulation of CCNB1 in human MINO cells at 100 nM incubated for 8 to 24 hrs by RNA sequencing analysis; assay type: functional, cell-based; settings: time 8-24 hrs
MINO [16] = test: Upregulation of AURKA in human MINO cells at 100 nM incubated for 8 to 24 hrs by RNA sequencing analysis; assay type: functional, cell-based; settings: time 8-24 hrs
MINO [17] = test: Upregulation of PLK1 in human MINO cells at 100 nM incubated for 8 to 24 hrs by RNA sequencing analysis; assay type: functional, cell-based; settings: time 8-24 hrs
MINO [18] = test: Upregulation of CENPA in human MINO cells at 100 nM incubated for 8 to 24 hrs by RNA sequencing analysis; assay type: functional, cell-based; settings: time 8-24 hrs
MINO [19] = test: Upregulation of CENPE in human MINO cells at 100 nM incubated for 8 to 24 hrs by RNA sequencing analysis; assay type: functional, cell-based; settings: time 8-24 hrs
MINO [20] = test: Upregulation of BIRC5 in human MINO cells at 100 nM incubated for 8 to 24 hrs by RNA sequencing analysis; assay type: functional, cell-based; settings: time 8-24 hrs
MINO [21] = test: Upregulation of CCNB2 in human MINO cells at 100 nM incubated for 8 to 24 hrs by RNA sequencing analysis; assay type: functional, cell-based; settings: time 8-24 hrs

SMILES | Activity [1] | IC50 (VL51 [2]) | IC50 (SU-DHL10 [3]) | Activity (SU-DHL10 [4]) | IC50 [5] | IC50 (MCF7) | IC50 [6] | IC50 (Tubulin) | Activity (VL51 [7]) | Activity [8] | inhibition (Tubulin (Homo sapiens)) | also measured
COc1cccc(Cn2cc3c(c2)-c2oncc2CC3)c1 | 8.9% | 1 µM | 0.8 µM | 14% | 0.7 µM | 0.55 µM | 0.7 µM | 5.2 µM | 44.7% | 37.9% | 69% | –
COc1ccc(Cn2cc3c(c2-c2cc(OC)c(OC)c(OC)c2)CCc2cnoc2-3)cc1N | 9.31% | 0.1 µM | 0.1 µM | 12% | 0.09 µM | 0.24 µM | 0.07 µM | 1.7 µM | 34.7% | 12.9% | 57% | –
COc1cc(Cn2cc3c(c2)-c2oncc2CC3)cc(OC)c1OC | 8.6% | 0.12 µM | 0.07 µM | 13.8% | 0.08 µM | 0.21 µM | 0.07 µM | 2.3 µM | 28.1% | 7.3% | 80% | Activity (MINO [9]): Active; Activity (VL51 [10]): Active; Activity (PBMC): 15%; Activity (VL51 [11]): Active; Activity (MINO [12]): Active; Activity (VL51 [13]): Active; Activity (MINO [14]): Active
COc1ccc(Cn2cc3c(c2-c2ccccc2)CCc2cnoc2-3)cc1[N+](=O)[O-] | – | – | – | – | – | 0.34 µM | – | 1.5 µM | – | – | 55% | –
COc1ccc(Cn2cc3c(c2-c2ccccc2)CCc2cnoc2-3)cc1N | 10.5% | 0.25 µM | 0.26 µM | 13% | 0.27 µM | 0.37 µM | 0.23 µM | 1.7 µM | 37.6% | 27.6% | 72% | –
COc1cc(Cn2cc3c(c2)-c2oncc2CC3)cc(OC)c1 | 0.8% | 0.04 µM | 0.03 µM | 30.5% | 0.02 µM | 0.29 µM | 0.02 µM | 2.8 µM | 38% | 7.1% | 88% | Activity (MINO [9]): Active; Activity (MINO [15]): Active; Activity (VL51 [10]): Active; Activity (MINO [16]): Active; Activity (PBMC): 15%; Activity (VL51 [11]): Active; Activity (MINO [12]): Active; Activity (MINO [17]): Active; Activity (MINO [18]): Active; Activity (MINO [19]): Active; Activity (VL51 [13]): Active; Activity (MINO [20]): Active; Activity (MINO [21]): Active; Activity (MINO [14]): Active
c1ccc(Cn2cc3c(c2-c2ccccc2)CCc2cnoc2-3)cc1 | – | – | – | – | – | > 5 µM | – | 4.6 µM | – | – | 21% | –
COc1ccc(Cn2cc3c(c2-c2ccccc2)CCc2cnoc2-3)cc1OC | – | – | – | – | – | 4.5 µM | – | 3.4 µM | – | – | 34% | –
COc1ccc(Cn2cc3c(c2-c2ccccc2)CCc2c(CN4CCCC4)noc2-3)cc1 | – | – | – | – | – | > 5 µM | – | 12 µM | – | – | – | –
COc1ccc(Cn2cc3c(c2-c2cc(OC)c(OC)c(OC)c2)CCc2cnoc2-3)cc1 | 8.7% | 0.27 µM | 0.5 µM | 12.7% | 0.47 µM | 0.6 µM | 0.37 µM | 3.2 µM | 37.9% | 30.7% | 34% | –
COc1ccc(/C=C\c2cc(OC)c(OC)c(OC)c2)cc1O [COMBRETASTATIN A4] | – | – | – | – | – | 0.018 µM | – | – | – | – | – | –
COc1ccc(Cn2cc3c(c2-c2ccccc2)CCc2cnoc2-3)cc1 | 8.4% | 0.27 µM | 0.28 µM | 13% | 0.25 µM | 0.38 µM | 0.23 µM | 2.1 µM | 40.9% | 21.5% | 77% | –
CCOC(=O)c1c2c(cn1Cc1ccc(OC)cc1)-c1oncc1CC2 | – | – | – | – | – | > 5 µM | – | 8 µM | – | – | – | –
COc1ccc(Cn2cc3c(c2-c2ccc(OC)cc2)CCc2cnoc2-3)cc1 | 29.9% | 1.1 µM | 1.7 µM | 47.4% | 1.2 µM | > 5 µM | 1.1 µM | 2 µM | 49.4% | 57.1% | 55% | –
